From paper PMC11714206, “Massively Parallel Screening of Toll/Interleukin‐1 Receptor (TIR)‐Derived Peptides Reveals Multiple Toll‐Like Receptors (TLRs)‐Targeting Immunomodulatory Peptides” (Advanced Science, 2024)
Blank lines part the entries; values can stand above or below the sequence they belong to.

Biological target: T1, MAL^TIR (Homo sapiens, UniProt P58753)
T1 construct: MAL (residues 79–221); 6xHis; made in house; host or cells: E. coli BL21 (DE3)
Test: T‐Surf phage library (P8 and P3) selection against MAL^TIR, four rounds, NGS read counts
Type: binding
Details: for P3_MAL Rank (after) / P3_MAL Rank (before): P3 library; for P8_MAL Rank (after) / P8_MAL Rank (before): P8 library; for Population: 4th round of selection against MAL TIR, share of NGS reads
Summary of the method: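 Read counts come from NGS of phage pools after the fourth selection round, barcoded by 20-cycle PCR and filtered for quality ≥30. Each round: phage incubated 1 h at RT on immobilised TIR protein (5 µg mL^−1, BSA-blocked), washed, HCl-eluted and amplified in E. coli TG1.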

[1] = selection against MAL, rank by count after grouping
[2] = selection against MAL, rank by count before grouping
[3] = P8_MAL: rank by count after grouping
[4] = P8_MAL: rank by count before grouping
[5] = 4R selection against MAL, rank after grouping
[6] = 4R selection against MAL, rank before grouping
[7] = P3_MAL: rank by count after grouping
[8] = P3_MAL: rank by count before grouping
[9] = selection against MAL TIR, rank by count after grouping
[10] = selection against MAL TIR, rank by count before grouping
[11] = P8_MAL pool: P8 T-Surf phage library
[12] = selection against MAL, rank after grouping
[13] = selection against MAL, rank before grouping
[14] = P3_MAL pool: P3 T-Surf phage library

T1 sequence (P58753 79-221): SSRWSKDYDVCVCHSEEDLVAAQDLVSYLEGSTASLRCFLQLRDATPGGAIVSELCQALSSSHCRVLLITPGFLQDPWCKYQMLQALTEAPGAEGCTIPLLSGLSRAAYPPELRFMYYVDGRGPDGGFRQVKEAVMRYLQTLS

Sequence: NDVEGCRDALTKVASL
P3_MAL Rank (after) [1]: 679 | P3_MAL Rank (before) [2]: 3278

Sequence: SFFWNKLRYALTYRPAT
Rank (after) [7]: 437 | Rank (before) [8]: 2995

Sequence: TFLCHLYSTLVQARIH
Rank (after) [3]: 402 | Rank (before) [4]: 2546

Sequence: AFLYTFLINLTHPTTF
Population [11]: 0.0034%

Sequence: RNNYIGHLYQALYRNG
P8_MAL Rank (after) [5]: 596 | P8_MAL Rank (before) [6]: 2297

Sequence: LFFWESLKQLLRSAGR
Population [11]: 0.0034%

Sequence: SSFREGLWRLPELCKK
Rank (after) [7]: 430 | Rank (before) [8]: 3163

Sequence: YAFTRHLHRYLVQSGV
Rank (after) [7]: 147 | Rank (before) [8]: 1468

Sequence: RLLKWKEALQQFHSGV
Rank (after) [7]: 177 | Rank (before) [8]: 2497

Sequence: MSHLYQGLQHRGIFTF
Rank (after) [7]: 396 | Rank (before) [8]: 2943

Sequence: AFLWTQLKSLLRNTTM
P8_MAL Rank (after) [12]: 534 | P8_MAL Rank (before) [13]: 1765

Sequence: RGFMSHLRHPLQAKDH
P3_MAL Rank (after) [5]: 616 | P3_MAL Rank (before) [6]: 2412

Sequence: NQWRNALTAAAKLKAPI
P3_MAL Rank (after) [12]: 522 | P3_MAL Rank (before) [13]: 3386

Sequence: AFFWAQLKNVLGNPTM
Population [11]: 0.00278%

Sequence: ESILNQLRRSSQSMR
P3_MAL Rank (after) [9]: 202 | P3_MAL Rank (before) [10]: 2061

Sequence: RSFRDGLWRLLELSKK
Rank (after) [7]: 160 | Rank (before) [8]: 3232

Sequence: ESGKLASGAGKSGQT
P3_MAL Rank (after) [5]: 598 | P3_MAL Rank (before) [6]: 2037

Sequence: NQCRNALTPAAKLSSL
P3_MAL Rank (after) [12]: 538 | P3_MAL Rank (before) [13]: 3423

Sequence: SEFIQKIILWMNQTNV
Rank (after) [3]: 440 | Rank (before) [4]: 2473

Sequence: AFLYTVLINLTHTTYF
P8_MAL Rank (after) [12]: 517 | P8_MAL Rank (before) [13]: 1886

Sequence: LVVQENLKQLLLFGGL
P3_MAL Rank (after) [1]: 745 | P3_MAL Rank (before) [2]: 2091

Sequence: AFFCAQLKSVLGNPTM
Population [11]: 0.00309%

Sequence: AFFWAQLKRAGQSDD
P8_MAL Rank (after) [9]: 257 | P8_MAL Rank (before) [10]: 1607

Sequence: KNLFNEMVSKNIRTYM
P3_MAL Rank (after) [12]: 567 | P3_MAL Rank (before) [13]: 3780

Sequence: TFLGHLYNALVQAGI
P8_MAL Rank (after) [12]: 498 | P8_MAL Rank (before) [13]: 2582

Sequence: KNLFHELVIKNIRTFM
P3_MAL Rank (after) [1]: 696 | P3_MAL Rank (before) [2]: 3747

Sequence: FLNFRGLDVRNYFLA
Rank (after) [7]: 408 | Rank (before) [8]: 1158

Sequence: VRVVDDGSVSPLEM
P3_MAL Rank (after) [12]: 512 | P3_MAL Rank (before) [13]: 1691

Sequence: AFYGPLLSLILRDTKM
P8_MAL Rank (after) [5]: 641 | P8_MAL Rank (before) [6]: 1790

Sequence: LFFWKSLKQLLRSDSR
Rank (after) [3]: 124 | Rank (before) [4]: 2128

Sequence: KEVDGWRDALTQVASL
P3_MAL Rank (after) [9]: 196 | P3_MAL Rank (before) [10]: 3547

Sequence: RNFVAYLFQALANKSI
Population [11]: 0.00309%

Sequence: KERPFGAQRAEKWRA
P3_MAL Rank (after) [1]: 736 | P3_MAL Rank (before) [2]: 3610

Sequence: RSFVASLFQALANKGI
P8_MAL Rank (after) [9]: 240 | P8_MAL Rank (before) [10]: 2178

Sequence: SSFRVGLCRLMALIQQ
P3_MAL Rank (after) [1]: 685 | P3_MAL Rank (before) [2]: 3125

Sequence: LFFWEHLKQLLRNDGR
P8_MAL Rank (after) [12]: 513 | P8_MAL Rank (before) [13]: 2073

Sequence: VGWFLHTLSQHILKREK
Rank (after) [7]: 168 | Rank (before) [8]: 528

More lines, now with the values ahead:

P3_MAL Rank (after) [1]: 705 | P3_MAL Rank (before) [2]: 2898
Sequence: HQTFWDRLCAKLKAPI

Rank (after) [3]: 481 | Rank (before) [4]: 2445
Sequence: SEFLGAAEKRAGQSDD

P8_MAL Rank (after) [5]: 625 | P8_MAL Rank (before) [6]: 2560
Sequence: TFLGHLYMRWCRRAF

P3_MAL Rank (after) [1]: 771 | P3_MAL Rank (before) [2]: 2208
Sequence: LKWGDPYFLEQTALCD

Rank (after) [3]: 461 | Rank (before) [4]: 1804
Sequence: AFLCAHLKSVLGNPTI

P8_MAL Rank (after) [9]: 256 | P8_MAL Rank (before) [10]: 1108
Sequence: CFYQRLVSLILHDTKV

Rank (after) [7]: 146 | Rank (before) [8]: 3327
Sequence: NQCRNALTAAANLKGW

P3_MAL Rank (after) [12]: 575 | P3_MAL Rank (before) [13]: 3420
Sequence: NQWSNELTAAANLRGW

P8_MAL Rank (after) [1]: 681 | P8_MAL Rank (before) [2]: 1923
Sequence: AFMYTFLINLTHPNNF

P3_MAL Rank (after) [1]: 762 | P3_MAL Rank (before) [2]: 3640
Sequence: KIWGWRDALSRNPH

P8_MAL Rank (after) [12]: 566 | P8_MAL Rank (before) [13]: 2232
Sequence: RNFVADLFPALPNKGI

Population [14]: 0.00827%
Sequence: YAFTSHLHRYLVQRGV

Rank (after) [3]: 109 | Rank (before) [4]: 2531
Sequence: REFIKKIILWMNPKIV

P3_MAL Rank (after) [5]: 583 | P3_MAL Rank (before) [6]: 1500
Sequence: YLKLGYPWCWDRRRFA

P8_MAL Rank (after) [9]: 243 | P8_MAL Rank (before) [10]: 1654
Sequence: AFFWARLQSVLGNPTM

P8_MAL Rank (after) [5]: 604 | P8_MAL Rank (before) [6]: 2263
Sequence: RNNFLGYLYQALYRIG

Rank (after) [3]: 396 | Rank (before) [4]: 1372
Sequence: WFIIKFRTVLDRVNDV

Rank (after) [7]: 110 | Rank (before) [8]: 342
Sequence: RLLKWKDALYEAANLS

P8_MAL Rank (after) [9]: 216 | P8_MAL Rank (before) [10]: 760
Sequence: WFMMKFRTVLGKPTM

P8_MAL Rank (after) [12]: 567 | P8_MAL Rank (before) [13]: 1640
Sequence: AFFWAQLKSTLGETSF

P3_MAL Rank (after) [9]: 192 | P3_MAL Rank (before) [10]: 979
Sequence: HQAFTGHLHRYLVQRGV

Rank (after) [7]: 96 | Rank (before) [8]: 96
Sequence: FISHLYAALQRKHVET

Rank (after) [7]: 477 | Rank (before) [8]: 2709
Sequence: PNLRTKVLNSLMSTKT

P3_MAL Rank (after) [1]: 711 | P3_MAL Rank (before) [2]: 1475
Sequence: YAFTSHLHHALRLNKIETF

Population [11]: 0.0034%
Sequence: AFLYTFLINLTHPTNS

P3_MAL Rank (after) [5]: 589 | P3_MAL Rank (before) [6]: 1776
Sequence: GSIKWRDQHTVHPQSS

Population [14]: 0.05% | Rank (after) [7]: 98 | Rank (before) [8]: 98
Sequence: RRTFLSHLQHHFASKG

P8_MAL Rank (after) [5]: 631 | P8_MAL Rank (before) [6]: 1693
Sequence: AFFWEQLRTVLRKPTT

P3_MAL Rank (after) [9]: 203 | P3_MAL Rank (before) [10]: 733
Sequence: YAFTGHLHRYLVQRSGI

P8_MAL Rank (after) [12]: 558 | P8_MAL Rank (before) [13]: 2443
Sequence: SDFIQLINLLVKPKII

P8_MAL Rank (after) [5]: 585 | P8_MAL Rank (before) [6]: 2212
Sequence: RNFVAYLFQALANTSI

P3_MAL Rank (after) [9]: 246 | P3_MAL Rank (before) [10]: 3130
Sequence: SSFRDGLWRLPELSKK

P8_MAL Rank (after) [9]: 194 | P8_MAL Rank (before) [10]: 1684
Sequence: AFFWEQLRTVLGKPSI

Rank (after) [3]: 398 | Rank (before) [4]: 1377
Sequence: WFMMKFRTVLYHVNYV

P3_MAL Rank (after) [1]: 718 | P3_MAL Rank (before) [2]: 1894
Sequence: DWFLSKLSQHSLKLEK

Rank (after) [3]: 183 | Rank (before) [4]: 2199
Sequence: RNFVAYLFQALAHKSI

P8_MAL Rank (after) [9]: 202 | P8_MAL Rank (before) [10]: 2241
Sequence: RNFMAYLFQALAHKGI

Rank (after) [3]: 424 | Rank (before) [4]: 1661
Sequence: AFFWAQLKSVLGNPPV

P8_MAL Rank (after) [1]: 677 | P8_MAL Rank (before) [2]: 2165
Sequence: LRKIADLSGWTLKSFR

P3_MAL Rank (after) [5]: 585 | P3_MAL Rank (before) [6]: 2391
Sequence: RGFLSHLSHPLQAKDP

P3_MAL Rank (after) [12]: 487 | P3_MAL Rank (before) [13]: 2617
Sequence: RFFQNKMRYHLQQLQH

P8_MAL Rank (after) [12]: 539 | P8_MAL Rank (before) [13]: 1406
Sequence: WSYERLVRLILRDTKV

Population [11]: 0.00309%
Sequence: AFLYTFLNNLTHPTNF

P3_MAL Rank (after) [5]: 650 | P3_MAL Rank (before) [6]: 2550
Sequence: RLQEWRETLCQGHSRV

P8_MAL Rank (after) [9]: 249 | P8_MAL Rank (before) [10]: 1442
Sequence: SFYWRQVSIILGDPTV

P8_MAL Rank (after) [12]: 561 | P8_MAL Rank (before) [13]: 1292
Sequence: WFYEPLVSVILPDTKV

P3_MAL Rank (after) [5]: 654 | P3_MAL Rank (before) [6]: 2631
Sequence: PVAHEISKKMQLFATI
